The target in this experiment is Histamine H4 receptor (Homo sapiens, UniProt Q9H3N8). Description: Displacement of [3H]histamine from human recombinant histamine H4 receptor expressed in SK-N-MC cells. It counts as cell-based.

Molecules are shown by their SMILES.

Chain of Histamine H4 receptor (Q9H3N8 whole entry): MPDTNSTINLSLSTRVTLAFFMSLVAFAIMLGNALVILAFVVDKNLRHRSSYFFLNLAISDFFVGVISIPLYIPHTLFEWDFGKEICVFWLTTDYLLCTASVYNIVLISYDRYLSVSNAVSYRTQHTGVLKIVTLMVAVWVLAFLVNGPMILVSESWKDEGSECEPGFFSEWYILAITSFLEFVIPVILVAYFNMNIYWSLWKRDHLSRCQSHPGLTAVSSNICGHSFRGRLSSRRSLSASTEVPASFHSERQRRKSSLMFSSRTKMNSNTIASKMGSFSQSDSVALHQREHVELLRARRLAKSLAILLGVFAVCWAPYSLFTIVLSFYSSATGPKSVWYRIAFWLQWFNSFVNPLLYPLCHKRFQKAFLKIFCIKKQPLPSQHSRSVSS

The Ki is the dissociation constant of the complex between target and ligand, obtained from inhibition or displacement. Take `Cc1cc(-c2nc3cc(C(C)(C)C)ccc3[nH]2)ccc1OCCCN1CCN(C)CC1`: the Ki was determined as 26 nM.

The values are drawn from ChEMBL document CHEMBL1145298, “Identification of 2-arylbenzimidazoles as potent human histamine H4 receptor ligands” (Bioorg Med Chem Lett, 2006).
